# In patent publication US20240199572A1, “COMPOUNDS, COMPOSITIONS, AND METHODS FOR TREATING TYPE 2 DIABETES AND DEMENTIA” (THE BOARD OF TRUSTEES OF THE UNIVERSITY OF ILLINOIS, priority 2021, published 2024):
# Test system: ABCA1
# Assay: ABCA1 firefly reporter assay in CCF-001 cells
# Assay type: cell-based
# Settings: ABCA1 firefly reporter assay in CCF-001 cells (Table 8)
row,SMILES,EC50 [nM]
1,"CCOc1ccc(N(C)S(=O)(=O)c2cc(Cl)sc2C(=O)Nc2cc(Cl)ccc2F)cc1OC [GR1-001, 5-Chloro-N-(5-chloro-2-fluorophenyl)-3-(N-(4-ethoxy-3-methoxyphenyl)-N-methylsulfamoyl)thiophene-2-carboxamide]",820
2,"CCOc1ccc(N(C)S(=O)(=O)c2cc(Cl)sc2C(=O)Nc2cc(C(F)(F)F)cc(C(F)(F)F)c2)cc1OC [GR1-002, N-(3,5-bis (trifluoromethyl)phenyl)-5-chloro-3-(N-(4-ethoxy-3-methoxyphenyl)-N-methylsulfamoyl)thiophene-2-carboxamide]",2020
3,"CCOC(=O)c1cccc(-c2nnc(-c3sc(Cl)cc3S(=O)(=O)N(C)c3ccc(OCC)c(OC)c3)o2)c1 [GR1-015, Ethyl 3-(5-(5-chloro-3-(N-(4-ethoxy-3-methoxyphenyl)-N-methylsulfamoyl)thiophen-2-yl)-1,3,4-oxadiazol-2-yl)benzoate]",3080
4,"C#CCOc1ccc(C(=O)c2ccc(OC(=O)c3cc(Cl)cc(NC(=O)c4sc(Cl)cc4S(=O)(=O)N(C)c4ccc(OCC)c(OC)c4)c3)cc2)cc1 [GR1-019, 4-(4-(Prop-2-yn-1-yloxy)benzoyl)phenyl 3-chloro-5-(5-chloro-3-(N-(4-ethoxy-3-methoxyphenyl)-N-methylsulfamoyl)thiophene-2-carboxamido)benzoate]",66
5,"CCOc1ccc(N(C)S(=O)(=O)c2cc(Cl)sc2C(=O)Nc2cccc(Cl)c2)cc1OC [GR1-046, 5-Chloro-N-(3-chlorophenyl)-3-(N-(4-ethoxy-3-methoxyphenyl)-N-methylsulfamoyl)thiophene-2-carboxamide]",2700
6,"CCOc1ccc(N(C)S(=O)(=O)c2cc(Cl)sc2C(=O)Nc2cccc(F)c2)cc1OC [GR1-047, 5-Chloro-3-(N-(4-ethoxy-3-methoxyphenyl)-N-methylsulfamoyl)-N-(3-fluorophenyl)thiophene-2-carboxamide]",2530
7,"CCOc1ccc(N(C)S(=O)(=O)c2cc(Cl)sc2C(=O)Nc2cccc(Br)c2)cc1OC [GR1-048, N-(3-bromophenyl)-5-chloro-3-(N-(4-ethoxy-3-methoxyphenyl)-N-methylsulfamoyl)thiophene-2-carboxamide]",1240
8,"CCOc1ccc(N(C)S(=O)(=O)c2cc(Cl)sc2C(=O)Nc2cc(Cl)cc(Cl)c2)cc1OC [GR1-049, 5-Chloro-N-(3,5-dichlorophenyl)-3-(N-(4-ethoxy-3-methoxyphenyl)-N-methylsulfamoyl)thiophene-2-carboxamide]",790
9,"CCOc1ccc(N(C)S(=O)(=O)c2cc(Cl)sc2C(=O)Nc2cc(F)cc(Cl)c2)cc1OC [GR1-050, 5-Chloro-N-(3-chloro-5-fluorophenyl)-3-(N-(4-ethoxy-3-methoxyphenyl)-N-methylsulfamoyl)thiophene-2-carboxamide]",1090
10,"CCOc1ccc(N(C)S(=O)(=O)c2cc(Cl)sc2C(=O)Nc2cc(Cl)cc(Br)c2)cc1OC [GR1-051, N-(3-bromo-5-chlorophenyl)-5-chloro-3-(N-(4-ethoxy-3-methoxyphenyl)-N-methylsulfamoyl)thiophene-2-carboxamide]",3600
11,"CCOc1ccc(N(C)S(=O)(=O)c2cc(Cl)sc2C(=O)Nc2cc(Cl)cc(C(F)(F)F)c2)cc1OC [GR1-052, 5-Chloro-N-(3-chloro-5-(trifluoromethyl)phenyl)-3-(N-(4-ethoxy-3-methoxyphenyl)-N-methylsulfamoyl)thiophene-2-carboxamide]",1550
12,"CCOC(=O)c1cc(Br)cc(NC(=O)c2sc(Cl)cc2S(=O)(=O)N(C)c2ccc(OCC)c(OC)c2)c1 [GR1-054, Ethyl 3-bromo-5-(5-chloro-3-(N-(4-ethoxy-3-methoxyphenyl)-N-methylsulfamoyl)thiophene-2-carboxamido)benzoate]",564
13,"CCOc1ccc(N(C)S(=O)(=O)c2cc(Cl)sc2C(=O)Nc2cc(Cl)cc(C(=O)Oc3ccccc3)c2)cc1OC [GR1-059, Phenyl 3-chloro-5-(5-chloro-3-(N-(4-ethoxy-3-methoxyphenyl)-N-methylsulfamoyl)thiophene-2-carboxamido)benzoate]",135
